From ChEMBL document CHEMBL1150266, “Design and synthesis of conformationally constrained glucagon-like peptide-1 derivatives with increased plasma stability and prolonged in vivo activity” (J Med Chem, 2008)

Legend:
[1] = molecular target: T1, Glucagon-like peptide 1 receptor (Homo sapiens, UniProt P43220); test: Displacement of [125I]GLP1 from human GLP1R expressed in CHOK1 cells; assay type: cell-based, CHO-K1
[2] = molecular target: T1, Glucagon-like peptide 1 receptor; test: Agonist activity at human GLP1R expressed in CHO cells assessed as increase in cAMP level by cAMP-response element/luciferase activation assay; assay type: functional, cell-based
[3] = test system: Plasma; test: (§1) Stability in human plasma at 1000 ng/mL at 37 degC; assay type: ADME, cell-free
[4] = Stability in human plasma at 1000 ng/mL at 37 degC after 5 hrs; assay type: ADME, cell-free; settings: read-out: Stability
[5] = as §1; assay type: ADME, cell-free

T1 sequence (P43220 whole entry): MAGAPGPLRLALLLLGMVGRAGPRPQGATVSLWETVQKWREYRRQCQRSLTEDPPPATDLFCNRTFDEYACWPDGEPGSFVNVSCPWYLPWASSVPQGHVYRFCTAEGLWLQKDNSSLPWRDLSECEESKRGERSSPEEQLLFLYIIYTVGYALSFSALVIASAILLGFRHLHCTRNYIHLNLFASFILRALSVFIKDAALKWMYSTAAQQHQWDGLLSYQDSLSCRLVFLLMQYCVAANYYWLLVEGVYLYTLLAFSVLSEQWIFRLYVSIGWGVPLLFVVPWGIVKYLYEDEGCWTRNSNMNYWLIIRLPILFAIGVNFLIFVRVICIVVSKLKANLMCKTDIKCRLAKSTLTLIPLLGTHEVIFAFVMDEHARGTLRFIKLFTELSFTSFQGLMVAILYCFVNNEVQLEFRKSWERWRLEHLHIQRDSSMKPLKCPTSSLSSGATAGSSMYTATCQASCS

| SMILES | IC50 [1] [nM] | EC50 [2] [nM] | Stability [3] | remaining at 5 h, 1000 ng/mL [4] [%] | half-life at 1000 ng/mL [5] [h] |
| --- | --- | --- | --- | --- | --- |
| CC[C@H](C)[C@H](NC(=O)[C@H](Cc1ccccc1)NC(=O)[C@H](CCC(=O)O)NC(=O)[C@@H]1CCCCNC(=O)CC[C@H](NC(=O)[C@H](CCC(=O)O)NC(=O)[C@H](CC(C)C)NC(=O)[C@H](Cc2ccc(O)cc2)NC(=O)[C@H](CO)NC(=O)[C@H](CO)NC(=O)[C@@H](NC(=O)[C@H](CC(=O)O)NC(=O)[C@H](CO)NC(=O)[C@@H](NC(=O)[C@H](Cc2ccccc2)NC(=O)[C@@H](NC(=O)CNC(=O)[C@H](CCC(=O)O)NC(=O)CNC(=O)[C@@H](N)Cc2c[nH]cn2)[C@@H](C)O)[C@@H](C)O)C(C)C)C(=O)N[C@@H](CCC(N)=O)C(=O)N[C@@H](C)C(=O)N[C@@H](C)C(=O)N1)C(=O)N[C@@H](C)C(=O)N[C@@H](Cc1c[nH]c2ccccc12)C(=O)N[C@@H](CC(C)C)C(=O)N[C@H](C(=O)N[C@@H](CCCCN)C(=O)NCC(=O)N[C@@H](CCCNC(=N)N)C(=O)NCC(N)=O)C(C)C | 2.1 | 0.01 | Stable | 75 | – |
| CC[C@H](C)[C@H](NC(=O)[C@H](Cc1ccccc1)NC(=O)[C@H](CCC(=O)O)NC(=O)[C@H](CCCCN)NC(=O)[C@H](C)NC(=O)[C@H](C)NC(=O)[C@H](CCC(N)=O)NC(=O)CNC(=O)[C@H](CCC(=O)O)NC(=O)[C@H](CC(C)C)NC(=O)[C@H](Cc1ccc(O)cc1)NC(=O)[C@H](CO)NC(=O)[C@H](CO)NC(=O)[C@@H](NC(=O)[C@H](CC(=O)O)NC(=O)[C@H](CO)NC(=O)[C@@H](NC(=O)[C@H](Cc1ccccc1)NC(=O)[C@@H](NC(=O)CNC(=O)[C@H](CCC(=O)O)NC(=O)[C@H](C)NC(=O)[C@@H](N)Cc1cnc[nH]1)[C@@H](C)O)[C@@H](C)O)C(C)C)C(=O)N[C@@H](C)C(=O)N[C@@H](Cc1c[nH]c2ccccc12)C(=O)N[C@@H](CC(C)C)C(=O)N[C@H](C(=O)N[C@@H](CCCCN)C(=O)NCC(=O)N[C@@H](CCCNC(=N)N)C(=O)NCC(N)=O)C(C)C | – | – | – | – | 0.5 |
| CC[C@H](C)[C@H](NC(=O)[C@H](Cc1ccccc1)NC(=O)[C@H](CCC(=O)O)NC(=O)[C@H](CCCCN)NC(=O)[C@H](C)NC(=O)[C@H](C)NC(=O)[C@H](CCC(N)=O)NC(=O)CNC(=O)[C@H](CCC(=O)O)NC(=O)[C@H](CC(C)C)NC(=O)[C@H](Cc1ccc(O)cc1)NC(=O)[C@H](CO)NC(=O)[C@H](CO)NC(=O)[C@@H](NC(=O)[C@H](CC(=O)O)NC(=O)[C@H](CO)NC(=O)[C@@H](NC(=O)[C@H](Cc1ccccc1)NC(=O)[C@@H](NC(=O)CNC(=O)[C@H](CCC(=O)O)NC(=O)CNC(=O)[C@@H](N)Cc1cnc[nH]1)[C@@H](C)O)[C@@H](C)O)C(C)C)C(=O)N[C@@H](C)C(=O)N[C@@H](Cc1c[nH]c2ccccc12)C(=O)N[C@@H](CC(C)C)C(=O)N[C@H](C(=O)N[C@@H](CCCCN)C(=O)NCC(=O)N[C@@H](CCCNC(=N)N)C(=O)NCC(=O)O)C(C)C | – | – | – | – | 5 |
